# Measurements published in paper PMC7934871 (JCI Insight, 2021).
# Key:
# [1] = tested on: HCT116 xenografted tumors
# Description: For in vivo study, HCT116 cells were subcutaneously engrafted into NSG mice. After tumors reached an average size of approximately 5 mm, mice were locally treated with 1 mg/kg of FAM-labeled PS-unacet.-STAT3, PS-STAT3-K685R, or PS-acet.-STAT3 peptides (Anaspec) every day for 35 days. Twenty-four hours after the last treatment, tumors were harvested and analyzed by IF staining and 20× immersion objective on LSM 700 confocal microscope (ZEISS). Images were quantified using Zen software (ZEISS).
# Supplemental Figure 5 (related to Figure 2). […]
# (C to G) Subcutaneous HCT116 xenografts treated with FAM-labeled PS-unacet.-STAT3, PS-STAT3-K685R or PS-acet.-STAT3 peptides every other day at 1 mg/kg for 40 days.
# (C) Retention of PS-acet.-STAT3 peptide was visualized with IF staining of tissue sections followed by confocal microscopy. n= 6 tumor tissues. Scales, 50 µm.
# (E) The mRNA levels of CASP9, BIRC5 and BCL2L1 from the same tumor tissues described above were assessed by qRT-PCR. SD is shown. n= 3 independent experiments. One-way […]
# (F) IF staining of cell proliferation (Ki-67) and vascularization (CD-31) markers upon peptide treatments in HCT116 tumor tissues. Scales; 50 and 100 µm (upper panels). The lower panels show the quantification of Ki-67 and CD-31. n= 6 tumor tissues.
# Same protein samples were used from (D).
# Aftabizadeh and Li et al., Figure S5
# [2] = tested on: STAT3-regulated genes; experiment: Expression of STAT3 targets in HCT116 cells (Western blotting, qPCR); assay type: cell-based, human
# Description: Figure 3 PS-acet.-STAT3 peptide inhibits STAT3 activity and downregulates the expression of STAT3 targets. (A) Downregulation of STAT3 activity and its downstream target proteins shown in human HCT116 colorectal cancer cells by Western blotting (data represent 1 of the 3 experiments, n = 3). PO-acet.-STAT3 and PS-STAT3-K685R peptides were used in parallel as controls. (B) STAT3 inhibition regulated the expression of proliferation and apoptotic genes, assessed by real-time quantitative PCR. Data present mean ± SD, n = 3 independent experiments, 1-way ANOVA; ***P < 0.005; **P < 0.01. […] For p53 promoter assay, data represent 3 replicates in 3 independent experiments (n = 9). […]
# Whole cell lysates or tissue homogenates were prepared by using RIPA lysis buffer (50 mM Tris at pH 7.4, 150 mM NaCl, 1 mM EDTA, 0.5% NP-40, 1 mM NaF, 15% glycerol, and 20 mM β-glycerophosphate). […] Protein amounts were determined by BCA using a Thermo Fisher Scientific kit. […]
# Total RNA was extracted from cultured or tumor tissues using RNeasy kit (QIAGEN), according to manufacturer’s instruction. After cDNA synthesis using iScript cDNA Synthesis kit (Bio-Rad), samples were analyzed using pairs of primers specific for CASP9, CASP3, CASP8, BIRC5, BCL2L1, MYC, TP53, VEGF, IL1B, SERPIN3, FGA, CDK4, CCND2, CDKN2A, CDKN2B, GADD45A, mCD274, mMmp9, and mBirc5, as indicated. […]
substance,measurement,setting,value
PDIPKEEAFGK685(Ac)YCRPESQEHPC-linker-T*C*C*A*T*G*A*G*C*T*T*C*C*T*G*A*T*G*C*T [PS-acet.-STAT3 peptide],tumor progression (proliferation marker Ki-67 and angiogenesis marker CD31),"[1]; HCT116 xenograft, 1 mg/kg local, IF staining",effectively inhibited
same,STAT3 phosphorylation in tumors,"[1]; HCT116 xenograft, 1 mg/kg local, immunoprecipitation and Western blotting",effectively inhibited
same,"transcriptional regulation (CASP9, BIRC5, BCL2L1 mRNA) in tumors","[1]; HCT116 xenograft, 1 mg/kg local, qRT-PCR",effectively inhibited
same,acetylation of STAT3 in tumors,"[1]; HCT116 xenograft, same samples as STAT3 phosphorylation",only moderately suppressed
same,cellular retention of peptide in tumors in vivo,"[1]; mouse, in vivo, 1 mg/kg",retained in tumors at significantly higher levels
same,"expression of STAT3-regulated genes Survivin (BIRC5) and MYC, protein and mRNA","[2]; HCT116, approximately 1 μM",significant downregulation
same,"expression of STAT3-suppressed apoptotic genes TP53, CASP9, CASP3","[2]; HCT116 and LoVo, real-time quantitative PCR",upregulated
